The source of these data is patent US9511134B2, “Inducing immune responses to influenza virus using polypeptide and nucleic acid compositions” (priority 2006, dated 2016).

One may read the IC50 as the concentration at which inhibition is half-maximal.

“And” between values parts separate entries of the source, which are not always exact repeats. Identical values can stand only once. Like-named read-outs stand apart in the source and are kept apart here. Where no end group is shown, it is not given here.

In one experiment the target is T1, DRB1*0401 (Homo sapiens, UniProt P01903+P01911, A100K/A169T/F76Y/I96L/K127E/L162R/M171V/N62H/P40V/Q125Y/R42H/S133A/S149N/S66Y/V115G/V209L/W38E).
T1 construct: made in house; host or cells: EBV-transformed homozygous human B cell lines, transfected fibroblasts or single-allele 721.221 transfectants
Put plainly: biochemical. In kind it is binding. The conditions noted are these: read-out: IC50 nM to purified HLA DRB1*0401.

The target in a further experiment is DRB1*0404 (Homo sapiens, UniProt P01903+P01911, A100R/A169T/F76Y/I96L/K127E/L162R/M171V/N62H/P40V/Q125Y/R42H/S133A/S149N/S66Y/V209L/W38E). In words: biochemical. It counts as binding. The conditions noted are these: IC50 nM to purified HLA DRB1*0404.
Another experiment has as its system CD4+ PBMC. In kind it is cell-based, human. The conditions noted are these: IFNγ ELISPOT, PBMC rested five days, CD8-depleted.
The next experiment concerns the target T2, DRB1*0101 (Homo sapiens, UniProt P01903+P01911, A100R/D57E/F55L/F60I/F76Y/I96L/L162R/M171V/P40L/Q125E/R42F/V115G/Y59C).
T2 construct: made in house; host or cells: EBV-transformed homozygous human B cell lines, transfected fibroblasts or single-allele 721.221 transfectants
Put plainly: biochemical. It counts as binding.

For a further experiment, the target named is T3, DRB1*0301 (Homo sapiens, UniProt P01903+P01911, A100K/A102G/A103R/A169T/F55Y/I96L/K41T/L162R/M171V/P40S/Q125H/Q178H/Q39Y/R42S/S66N/T106N/T262R/W38E/Y61H).
T3 construct: made in house; host or cells: EBV-transformed homozygous human B cell lines, transfected fibroblasts or single-allele 721.221 transfectants
T3 sequence (P01903 26-254, other chains not shown): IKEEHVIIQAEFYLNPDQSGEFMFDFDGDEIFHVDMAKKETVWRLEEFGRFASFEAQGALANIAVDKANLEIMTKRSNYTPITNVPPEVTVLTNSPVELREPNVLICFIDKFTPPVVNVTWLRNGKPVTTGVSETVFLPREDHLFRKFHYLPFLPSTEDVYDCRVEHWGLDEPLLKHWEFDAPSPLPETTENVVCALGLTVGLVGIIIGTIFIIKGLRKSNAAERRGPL
Put plainly: biochemical. It counts as binding.

A further experiment addresses DRB1*0405 (Homo sapiens, UniProt P01903+P01911, A100R/A169T/D86S/F76Y/I96L/K127E/L162R/M171V/N62H/P40V/Q125Y/R42H/S133A/S149N/S66Y/V115G/V209L/W38E). Put plainly: biochemical. It counts as binding. As to conditions: read-out: IC50 nM to purified HLA DRB1*0405.
Another experiment addresses DRB1*1302 (Homo sapiens, UniProt P01903+P01911, A100E/A169T/K41T/L162R/M171V/P40S/Q125H/Q178H/Q39Y/Q99D/R42S/S66N/T262R/V115G/W38E/Y61H). In words: biochemical. It counts as binding. The conditions noted are these: read-out: IC50 nM to purified HLA DRB1*1302.
The mark [1] stands for this setting: IC50 nM to purified HLA DRB1*0101.

Chain of DRB1*1302 (P01903 26-254 limits assumed, other chains not shown): as the sequence (P01903 26-254, other chains not shown) above

As for `CC[C@H](C)[C@H](NC(=O)[C@H](C)NC(=O)CNC(=O)[C@@H](N)CCC(=O)O)C(=O)N[C@H](C(=O)NCC(=O)N[C@@H](CCC(=O)O)C(=O)N[C@H](C(=O)N[C@@H](CO)C(=O)N1CCC[C@H]1C(=O)N[C@@H](CC(C)C)C(=O)N1CCC[C@H]1C(=O)N[C@@H](CO)C(=O)N[C@@H](CC(C)C)C(=O)N1CCC[C@H]1C(=O)O)[C@@H](C)CC)C(C)C` [Flu.NS1.156], the concentration for half-maximal inhibition (IC50) on DRB1*0401 (Table 4) is 48 nM; at DRB1*0401, 48 nM and 27 nM; against DRB1*0404, 13 nM; on DRB1*0101 (setting [1]) it was 85 nM; at DRB1*0101 (IC50 nM to purified HLA DRB1*0101, Table 4), 85 nM. Further, the “Human influenza epitope-specific immune response, donor 3501” value in the experiment on CD4+ PBMC is recorded as “Positive (Donors were considered positive for a peptide if the number of spots was over 3 times background as determined by responses to irrelevant peptides (non influenza))”.
With `CC[C@H](C)[C@H](NC(=O)[C@H](CCC(=O)O)NC(=O)[C@H](CCC(N)=O)NC(=O)[C@H](CCC(=O)O)NC(=O)[C@@H](NC(=O)[C@H](CCC(=O)O)NC(=O)[C@H](CC(C)C)NC(=O)[C@H](CC(C)C)NC(=O)[C@H](CC(C)C)NC(=O)[C@@H](N)CCC(N)=O)C(C)C)C(=O)N[C@@H](CCCNC(=N)N)C(=O)N[C@H](C(=O)N[C@@H](Cc1ccccc1)C(=O)N[C@@H](CO)C(=O)N[C@@H](Cc1ccccc1)C(=O)O)[C@@H](C)O` [Flu.NS2.180], the IC50 on DRB1*0401 was 13900 nM; against DRB1*0404 it was 1600 nM; against DRB1*0301, 792 nM; on DRB1*0405 it was 5140 nM; at DRB1*0101 (setting [1]), 11900 nM.
Turning to `CC[C@H](C)[C@H](NC(=O)[C@H](CCSC)NC(=O)[C@@H]1CCCN1C(=O)[C@H](CC(N)=O)NC(=O)[C@@H](N)Cc1ccccc1)C(=O)N[C@H](C(=O)N[C@@H](CCC(=O)O)C(=O)N[C@@H](CC(C)C)C(=O)N[C@@H](C)C(=O)N[C@@H](CCC(=O)O)C(=O)N[C@@H](CCCCN)C(=O)N[C@H](C(=O)N[C@@H](CCSC)C(=O)N[C@@H](CCCCN)C(=O)N[C@@H](CCC(=O)O)C(=O)O)[C@@H](C)O)C(C)C` [Flu.PA.12], the 50% inhibitory concentration (IC50) on DRB1*0401 stood at 29 nM; on DRB1*0404, 610 nM; at DRB1*1302 it was 1250 nM; against DRB1*0301, 744 nM; at DRB1*0405, 1240 nM; at DRB1*0101 (setting [1]) it was 48 nM.
Turning to `CC(C)[C@H](NC(=O)[C@H](CCC(=O)O)NC(=O)[C@H](C)NC(=O)[C@@H](NC(=O)[C@H](Cc1ccccc1)NC(=O)[C@H](Cc1ccc(O)cc1)NC(=O)[C@H](CC(N)=O)NC(=O)[C@@H](N)CCCNC(=N)N)[C@@H](C)O)C(=O)N[C@@H](CO)C(=O)N[C@@H](Cc1c[nH]cn1)C(=O)N[C@@H](CS)C(=O)N[C@@H](CCCNC(=N)N)C(=O)N[C@@H](C)C(=O)N[C@H](C(=O)N[C@@H](CCC(=O)O)C(=O)O)[C@@H](C)O` [Flu.PA.446], the IC50 is 45 nM on DRB1*0401; 7600 nM on DRB1*0404; 883 nM against DRB1*0301; 5720 nM at DRB1*0405; 627 nM on DRB1*0101 (setting [1]).
As for `CSCC[C@H](NC(=O)[C@H](CO)NC(=O)[C@@H](NC(=O)[C@H](Cc1ccccc1)NC(=O)[C@H](CC(N)=O)NC(=O)[C@@H](N)C(C)C)C(C)C)C(=O)N[C@@H](CCC(=O)O)C(=O)N[C@@H](Cc1ccccc1)C(=O)N[C@@H](CO)C(=O)N[C@@H](CC(C)C)C(=O)N[C@H](C(=O)N[C@@H](CC(=O)O)C(=O)N1CCC[C@H]1C(=O)N[C@@H](CCCNC(=N)N)C(=O)N[C@@H](CC(C)C)C(=O)O)[C@@H](C)O` [Flu.PA.521], on DRB1*0405, the IC50 amounted to 7700 nM.
For `CC[C@H](C)[C@H](NC(=O)[C@H](CC(C)C)NC(=O)[C@H](CS)NC(=O)[C@H](CCC(=O)O)NC(=O)[C@@H](N)CCC(=O)O)C(=O)N[C@@H](CC(N)=O)C(=O)N[C@@H](CC(=O)O)C(=O)N1CCC[C@H]1C(=O)N[C@@H](Cc1c[nH]c2ccccc12)C(=O)N[C@H](C(=O)N[C@@H](CC(C)C)C(=O)N[C@@H](CC(C)C)C(=O)N[C@@H](CC(N)=O)C(=O)N[C@@H](C)C(=O)N[C@@H](CO)C(=O)O)C(C)C` [Flu.PA.694], the IC50 amounted to 183 nM against DRB1*0404, 618 nM against DRB1*0301, 15000 nM at DRB1*0405 and 34 nM against DRB1*0101 (setting [1]).
Regarding `CSCC[C@H](NC(=O)[C@H](CO)NC(=O)[C@H](Cc1ccccc1)NC(=O)[C@H](CC(N)=O)NC(=O)[C@H](C)NC(=O)[C@@H](NC(=O)[C@H](Cc1ccccc1)NC(=O)CNC(=O)[C@@H](N)Cc1ccc(O)cc1)C(C)C)C(=O)N[C@@H](CCC(=O)O)C(=O)N[C@@H](CC(C)C)C(=O)N1CCC[C@H]1C(=O)N[C@@H](CO)C(=O)N[C@@H](Cc1ccccc1)C(=O)NCC(=O)O` [Flu.PB1.502], the “Human influenza epitope-specific immune response, donor 3501” value with CD4+ PBMC is “Positive (Donors were considered positive for a peptide if the number of spots was over 3 times background as determined by responses to irrelevant peptides (non influenza))”.
For the compound `CC[C@H](C)[C@H](NC(=O)CNC(=O)[C@H](CCCNC(=N)N)NC(=O)[C@@H](N)CCC(N)=O)C(=O)N[C@@H](CC(C)C)C(=O)N[C@@H](CCC(=O)O)C(=O)N[C@@H](CC(=O)O)C(=O)N[C@@H](CCC(=O)O)C(=O)N[C@@H](CCC(N)=O)C(=O)N[C@@H](CCSC)C(=O)N[C@@H](Cc1ccc(O)cc1)C(=O)N[C@@H](CCC(N)=O)C(=O)N[C@@H](CCCCN)C(=O)N[C@@H](CS)C(=O)N[C@@H](CS)C(=O)O` [Flu.PB1.682], the half-inhibitory concentration (IC50) on DRB1*0401 turned out to be 2560 nM; on DRB1*0404, 3270 nM; on DRB1*0301 it was 34 nM; on DRB1*0405, 700 nM; on DRB1*0101 (setting [1]) it was 433 nM.
Take `CC[C@H](C)[C@H](NC(=O)CNC(=O)[C@@H](N)CCCNC(=N)N)C(=O)N[C@@H](CC(C)C)C(=O)N[C@@H](CCC(=O)O)C(=O)N[C@@H](CC(=O)O)C(=O)N[C@@H](CCC(=O)O)C(=O)N[C@@H](CCC(N)=O)C(=O)N[C@@H](CCSC)C(=O)N[C@@H](Cc1ccc(O)cc1)C(=O)N[C@@H](CCC(N)=O)C(=O)N[C@@H](CCCCN)C(=O)N[C@@H](CS)C(=O)N[C@@H](CS)C(=O)N[C@@H](CC(N)=O)C(=O)O` [Flu.PB1.683]: the 50% inhibitory concentration (IC50) at DRB1*0401 came out at 5740 nM; on DRB1*1302, 18000 nM; against DRB1*0301, 43 nM; on DRB1*0405 it was 3280 nM.
Consider `CC[C@H](C)[C@H](NC(=O)[C@H](CCCNC(=N)N)NC(=O)[C@H](C)NC(=O)[C@H](CCCNC(=N)N)NC(=O)[C@H](CO)NC(=O)[C@@H](N)C(C)C)C(=O)N[C@@H](CC(=O)O)C(=O)N[C@@H](C)C(=O)N[C@@H](CCCNC(=N)N)C(=O)N[C@H](C(=O)N[C@@H](CC(=O)O)C(=O)N[C@@H](Cc1ccccc1)C(=O)N[C@@H](CCC(=O)O)C(=O)N[C@@H](CO)C(=O)NCC(=O)O)[C@@H](C)CC` [Flu.PB1.722], for which the IC50 on DRB1*0405 turned out to be 3010 nM.
For the compound `CC[C@H](C)[C@H](NC(=O)[C@H](CO)NC(=O)[C@@H](NC(=O)[C@@H](NC(=O)[C@@H](NC(=O)[C@@H](N)CCCNC(=N)N)C(C)C)C(C)C)C(C)C)C(=O)N[C@@H](CC(=O)O)C(=O)N[C@@H](CCCNC(=N)N)C(=O)N[C@@H](Cc1ccccc1)C(=O)N[C@@H](CC(C)C)C(=O)N[C@@H](CCCNC(=N)N)C(=O)N[C@H](C(=O)N[C@@H](CCCNC(=N)N)C(=O)N[C@@H](CC(=O)O)C(=O)N[C@@H](CCC(N)=O)C(=O)O)C(C)C` [Flu.PB2.496], the 50% inhibitory concentration (IC50) at DRB1*0401 turned out to be 111 nM; at DRB1*0404, 400 nM; on DRB1*1302, 8.1 nM; on DRB1*0301, 67 nM; at DRB1*0405, 2050 nM.
Turning to ALQLLFEVEQEIRTF [Flu.NS2.178], the IC50 against DRB1*0404 turned out to be 2150 nM; on DRB1*0405, 8870 nM; at DRB1*0101 (setting [1]), 3490 nM.
For GSYFFGDNAEEYDN [Flu.NP.488], the half-maximal inhibitory concentration (IC50) came to 1950 nM on DRB1*0401 and 65 nM on DRB1*0405.
Turning to LILYDKEEIRRIWRQ [Flu.NP.111], the concentration for half-maximal inhibition (IC50) turned out to be 262 nM on DRB1*0404; 3100 nM on DRB1*1302; 22 nM against DRB1*0301; 7500 nM at DRB1*0405; 7180 nM against DRB1*0101 (setting [1]).
Regarding MVAYMLERELVRKTR [Flu.PB2.205], the concentration for half-maximal inhibition (IC50) on DRB1*0401 is 166 nM; at DRB1*1302, 2080 nM; at DRB1*0405, 5540 nM; against DRB1*0101 (setting [1]), 97 nM.
